Test results as given in patent US8952024B2, “Herbicidal pyrimidone derivatives” (E I du Pont de Nemours and Company, priority 2009, dated 2015).
Like-named read-outs stand apart in the source and are kept apart here.

Key:
Test in all cases: Test B pre-/postemergence plant response
Assay type in all cases: in vivo
[1] = test system: Italian ryegrass (Lolium multiflorum); conditions: for pest or weed control at 31 g/ha: 31 g ai/ha; for pest or weed control at 62 g/ha: 62 g ai/ha; for pest or weed control at 125 g/ha: 125 g ai/ha
Method in brief: (§1)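 Visual injury, 0–100 scale (100 = complete control), rated against controls after 13 to 15 days in greenhouse. Pre-emergence: seeds in loam/sand soil, treated at planting. Post-emergence: 1- to 4-leaf plants (2 to 18 cm) in peat/vermiculite medium. Compounds formulated in non-phytotoxic solvent with surfactant.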

[2] = test system: blackgrass (Alopecurus myosuroides); conditions: for pest or weed control at 31 g/ha: 31 g ai/ha; for pest or weed control at 62 g/ha: 62 g ai/ha; for pest or weed control at 125 g/ha: 125 g ai/ha
Method in brief: as §1

[3] = test system: cocklebur (Xanthium strumarium); conditions: Preemergence
Method in brief: as §1

corn (Zea mays) = conditions: for Corn plant response rating (crop injury, 0 = no effect, 100 = complete kill) at 31 g/ha: 31 g ai/ha; for Corn plant response rating (crop injury, 0 = no effect, 100 = complete kill) at 62 g/ha: 62 g ai/ha; for Corn plant response rating (crop injury, 0 = no effect, 100 = complete kill) at 125 g/ha: 125 g ai/ha
Method in brief: as §1

[4] = test system: giant foxtail (Setaria faberii); conditions: for pest or weed control at 31 g/ha: 31 g ai/ha; for pest or weed control at 62 g/ha: 62 g ai/ha; for pest or weed control at 125 g/ha: 125 g ai/ha
Method in brief: as §1

[5] = test system: goosegrass (Eleusine indica); conditions: for pest or weed control at 31 g/ha: 31 g ai/ha; for pest or weed control at 62 g/ha: 62 g ai/ha; for pest or weed control at 125 g/ha: 125 g ai/ha
Method in brief: as §1

[6] = test system: green foxtail (Setaria viridis); conditions: for pest or weed control at 31 g/ha: 31 g ai/ha; for pest or weed control at 62 g/ha: 62 g ai/ha; for pest or weed control at 125 g/ha: 125 g ai/ha
Method in brief: as §1

[7] = test system: johnsongrass (Sorghum halepense); conditions: Preemergence, 250 g ai/ha; 0 to 100 scale
Method in brief: as §1

[8] = Lolium multiflorum, pre-emergence, Preemergence, scale 0 to 100 (0 no effect, 100 complete control), read-out: Plant response rating, Ryegrass, Italian
[9] = Preemergence, 250 g ai/ha, 0 to 100 scale
[10] = Alopecurus myosuroides, pre-emergence, 360 h, Preemergence, scale 0 to 100 (0 no effect, 100 complete control), read-out: Plant response rating, Blackgrass
[11] = Zea mays, pre-emergence, Preemergence, scale 0 to 100 (0 no effect, 100 complete control)
[12] = Setaria faberi, pre-emergence, Preemergence, scale 0 to 100 (0 no effect, 100 complete control), read-out: Plant response rating, Foxtail, Giant
[13] = Eleusine indica, pre-emergence, Preemergence, scale 0 to 100 (0 no effect, 100 complete control), read-out: Plant response rating, Goosegrass
[14] = Setaria viridis, pre-emergence, Preemergence, scale 0 to 100 (0 no effect, 100 complete control), read-out: Plant response rating, Foxtail, Green

## COCCn1c(-c2cc(F)cc(F)c2)ncc(C(=O)C2=C(O)C3CCC(C3)C2=O)c1=O (stereo not shown) [Compound 243, 2-(3,5-difluorophenyl)-5-[(2-hydroxy-4-oxobicyclo[3.2.1]oct-2-en-3-yl)carbonyl]-3-(2-methoxyethyl)-4(3H)-pyrimidinone]
[1]; Lolium multiflorum, post-emergence, Postemergence, 0 to 100 scale (0 no effect, 100 complete control), read-out: Plant response rating, Ryegrass, Italian
  pest or weed control at 31 g/ha: 60%
[1]; Lolium multiflorum, post-emergence, Postemergence, scale 0 to 100 (0 no effect, 100 complete control), read-out: Plant response rating, Ryegrass, Italian
  pest or weed control at 62 g/ha: 85%
[1]; Lolium multiflorum, post-emergence, Postemergence, scale 0 (no effect) to 100 (complete control), 13 to 15 days, read-out: Plant response rating, Ryegrass, Italian
  pest or weed control at 125 g/ha: 85%
[1]; Lolium multiflorum, post-emergence, Postemergence, 250 g ai/ha, scale 0 to 100 (0 no effect, 100 complete control), 13 to 15 days, read-out: Plant response rating, Ryegrass, Italian
  pest or weed control at 250 g/ha: 95%
[1]; [8]
  pest or weed control at 31 g/ha: 0%
  pest or weed control at 62 g/ha: 10%
[1]; Lolium multiflorum, pre-emergence, Preemergence, scale 0 to 100, 0 no effect, 100 complete control, read-out: Plant response rating, Ryegrass, Italian
  pest or weed control at 125 g/ha: 45%
[1]; [9]
  Ryegrass, Italian plant response rating: 70
[2]; Alopecurus myosuroides, post-emergence, 360 h, Postemergence, 0 to 100 scale (0 no effect, 100 complete control), read-out: Plant response rating, Blackgrass
  pest or weed control at 31 g/ha: 60%
[2]; Alopecurus myosuroides, post-emergence, 360 h, Postemergence, scale 0 to 100 (0 no effect, 100 complete control), read-out: Plant response rating, Blackgrass
  pest or weed control at 62 g/ha: 80%
[2]; Alopecurus myosuroides, post-emergence, 360 h, Postemergence, scale 0 (no effect) to 100 (complete control), 13 to 15 days, read-out: Plant response rating, Blackgrass
  pest or weed control at 125 g/ha: 85%
[2]; Alopecurus myosuroides, post-emergence, 360 h, Postemergence, 250 g ai/ha, scale 0 to 100 (0 no effect, 100 complete control), 13 to 15 days, read-out: Plant response rating, Blackgrass
  pest or weed control at 250 g/ha: 98%
[2]; [10]
  pest or weed control at 31 g/ha: 0%
  pest or weed control at 62 g/ha: 10%
[2]; Alopecurus myosuroides, pre-emergence, 360 h, Preemergence, scale 0 to 100, 0 no effect, 100 complete control, read-out: Plant response rating, Blackgrass
  pest or weed control at 125 g/ha: 70%
[2]; [9]
  Blackgrass plant response rating: 95
[3]; 250 g ai/ha, 0 to 100 scale
  Cocklebur plant response rating: 98
[3]; Xanthium strumarium, pre-emergence, 62 g ai/ha, scale 0 to 100 (0 no effect, 100 complete control), read-out: Plant response rating, Cocklebur
  pest or weed control at 62 g/ha: 75%
[3]; Xanthium strumarium, pre-emergence, 125 g ai/ha, scale 0 to 100, 0 no effect, 100 complete control, read-out: Plant response rating, Cocklebur
  pest or weed control at 125 g/ha: 95%
Corn (Zea mays); [9]
  Corn plant response rating: 95
Corn (Zea mays); Zea mays, post-emergence, Postemergence, 0 to 100 scale (0 no effect, 100 complete control)
  Corn plant response rating (crop injury, 0 = no effect, 100 = complete kill) at 31 g/ha: 90%
Corn (Zea mays); Zea mays, post-emergence, Postemergence, scale 0 to 100 (0 no effect, 100 complete control)
  Corn plant response rating (crop injury, 0 = no effect, 100 = complete kill) at 62 g/ha: 95%
Corn (Zea mays); Zea mays, post-emergence, Postemergence, scale 0 (no effect) to 100 (complete control), 13 to 15 days
  Corn plant response rating (crop injury, 0 = no effect, 100 = complete kill) at 125 g/ha: 100%
Corn (Zea mays); Zea mays, post-emergence, Postemergence, 250 g ai/ha, scale 0 to 100 (0 no effect, 100 complete control), 13 to 15 days
  Corn plant response rating (crop injury, 0 = no effect, 100 = complete kill) at 250 g/ha: 100%
Corn (Zea mays); [11]
  Corn plant response rating (crop injury, 0 = no effect, 100 = complete kill) at 31 g/ha: 65%
  Corn plant response rating (crop injury, 0 = no effect, 100 = complete kill) at 62 g/ha: 75%
Corn (Zea mays); Zea mays, pre-emergence, Preemergence, scale 0 to 100, 0 no effect, 100 complete control
  Corn plant response rating (crop injury, 0 = no effect, 100 = complete kill) at 125 g/ha: 85%
[4]; [9]
  Foxtail, Giant plant response rating: 95
[4]; Setaria faberi, post-emergence, Postemergence, 0 to 100 scale (0 no effect, 100 complete control), read-out: Plant response rating, Foxtail, Giant
  pest or weed control at 31 g/ha: 95%
[4]; Setaria faberi, post-emergence, Postemergence, scale 0 to 100 (0 no effect, 100 complete control), read-out: Plant response rating, Foxtail, Giant
  pest or weed control at 62 g/ha: 95%
[4]; Setaria faberi, post-emergence, Postemergence, scale 0 (no effect) to 100 (complete control), 13 to 15 days, read-out: Plant response rating, Foxtail, Giant
  pest or weed control at 125 g/ha: 98%
[4]; Setaria faberi, post-emergence, Postemergence, 250 g ai/ha, scale 0 to 100 (0 no effect, 100 complete control), 13 to 15 days, read-out: Plant response rating, Foxtail, Giant
  pest or weed control at 250 g/ha: 98%
[4]; [12]
  pest or weed control at 31 g/ha: 55%
  pest or weed control at 62 g/ha: 85%
[4]; Setaria faberi, pre-emergence, Preemergence, scale 0 to 100, 0 no effect, 100 complete control, read-out: Plant response rating, Foxtail, Giant
  pest or weed control at 125 g/ha: 95%
[5]; Eleusine indica, post-emergence, Postemergence, 0 to 100 scale (0 no effect, 100 complete control), read-out: Plant response rating, Goosegrass
  pest or weed control at 31 g/ha: 95%
[5]; Eleusine indica, post-emergence, Postemergence, scale 0 to 100 (0 no effect, 100 complete control), read-out: Plant response rating, Goosegrass
  pest or weed control at 62 g/ha: 95%
[5]; Eleusine indica, post-emergence, Postemergence, scale 0 (no effect) to 100 (complete control), 13 to 15 days, read-out: Plant response rating, Goosegrass
  pest or weed control at 125 g/ha: 98%
[5]; Eleusine indica, post-emergence, Postemergence, 250 g ai/ha, scale 0 to 100 (0 no effect, 100 complete control), 13 to 15 days, read-out: Plant response rating, Goosegrass
  pest or weed control at 250 g/ha: 98%
[5]; [13]
  pest or weed control at 31 g/ha: 98%
  pest or weed control at 62 g/ha: 100%
[5]; Eleusine indica, pre-emergence, Preemergence, scale 0 to 100, 0 no effect, 100 complete control, read-out: Plant response rating, Goosegrass
  pest or weed control at 125 g/ha: 100%
[5]; [9]
  Goosegrass plant response rating: 100
[6]; [9]
  Foxtail, Green plant response rating: 100
[6]; Setaria viridis, post-emergence, Postemergence, 0 to 100 scale (0 no effect, 100 complete control), read-out: Plant response rating, Foxtail, Green
  pest or weed control at 31 g/ha: 98%
[6]; Setaria viridis, post-emergence, Postemergence, scale 0 to 100 (0 no effect, 100 complete control), read-out: Plant response rating, Foxtail, Green
  pest or weed control at 62 g/ha: 98%
[6]; Setaria viridis, post-emergence, Postemergence, scale 0 (no effect) to 100 (complete control), 13 to 15 days, read-out: Plant response rating, Foxtail, Green
  pest or weed control at 125 g/ha: 100%
[6]; Setaria viridis, post-emergence, Postemergence, 250 g ai/ha, scale 0 to 100 (0 no effect, 100 complete control), 13 to 15 days, read-out: Plant response rating, Foxtail, Green
  pest or weed control at 250 g/ha: 100%
[6]; [14]
  pest or weed control at 31 g/ha: 35%
  pest or weed control at 62 g/ha: 100%
[6]; Setaria viridis, pre-emergence, Preemergence, scale 0 to 100, 0 no effect, 100 complete control, read-out: Plant response rating, Foxtail, Green
  pest or weed control at 125 g/ha: 100%
[7]
  Johnsongrass plant response rating: 100
